{"source": "patent US7476383B2", "about": "“Antibody selective for DR4 and uses thereof” (The UAB Research Foundation, priority 2000, dated 2009)", "molecules": {"B1": {"name": "Fas ligand: recombinant soluble Fas ligand used with enhancer (protein, UniProt P48023 103-281, looked up)", "extracellular domain": "QLFHLQKELAELRESTSQMHTASSLEKQIGHPSPPPEKKELRKVAHLTGKSNSRSMPLEWEDTYGIVLLSGVKYKKGGLVINETGLYFVYSKVYFRGQSCNNLPLSHKVYMRNSKYPQDLVMMEGKMMSYCTTGQMWARSSYLGAVFNLTSADHLYVNVSELSLVNFEESQTFFGLYKL", "modifications": "extracellular domain", "notes": "recombinant soluble Fas ligand used with enhancer"}}, "key": {"[1]": {"tested_on": "2LMP xenografts", "experiment": "TUNEL analysis of apoptosis in xenografts", "assay_type": "in vivo, athymic nude mice", "details": "day 14; untreated 1%", "procedure": "One group of mice was untreated. The xeno grafts were dissected for the study of apoptosis on day 14 after tumor cell injection. The reason for the substantial reduction in treatment intensity compared to our standard treatment protocol was to allow adequate tumor tissue for analysis on day 14. Tunel assay for apoptosis in tumor xenografts was performed as follows. Five-micron paraffin sections of tissue were mounted on Superfrost/Plus slides and heated at 58° C. for 1 h. Tissue sections were deparaffinized in three changes of xylene and rehydrated with one change of absolute ethanol, 95% ethanol, and 70% ethanol, each in 5-min increments. Then, the sections were placed in Tris-buffered saline (0.5M Tris base, 0.15 M NaCl, 0.0002% Triton X-100, pH 7.6). Apoptotic nuclei were detected using an Apop Tag Peroxidase kit (Intergen, Purchase, N.Y.). Proteinase K (20 μg/ml in distilled deionized H2O) was added to the tissue specimens and incubated at room temperature for 15 min. Endogenous peroxidases were quenched with an aqueous solution of 3% hydrogen peroxide for 5 min. […] Approximately 10 random fields were evaluated for percentage of Tunel stained and percentage of intensely stained apoptotic bodies throughout the tissue."}, "[2]": {"tested_on": "2LMP human breast cancer xenografts", "experiment": "2LMP breast cancer xenografts in athymic nude mice", "assay_type": "in vivo", "procedure": "Nude mice were inoculated s.c. with the human breast cancer cell line, 2LMP. Treatment with i.p. doses of 200 μg of 2E12 occurred on days 7, 10, 14, 17, 21, and 24 after tumor cell injection. Animals received i.v. adriamycin (doxorubicin) (6 mg/kg) on days 8, 12, and 16.\nAthymic nude mice were injected s.c. with 3×10^7 2LMP cells. […] The growth of tumors was monitored over time. […] Tumor size and regression rates were determined.\nData from 6 independent experiments were analyzed by individual experiment. Treatment combinations were compared with respect to in vivo anti-tumor efficacy, i.e., inhibition of tumor growth, which was measured as three endpoints; extension of tumor doubling times, percentage of tumor regressions, and growth rates over time. The actual number of days at which the tumor doubled in surface area (product of two diameters) relative to baseline on day 7 after tumor cell injection was used in the doubling time analysis. The nonparametric Kruskal-Wallis test was used for median tumor doubling time comparisons between treatments. Fisher's exact test was used to compare the proportions of tumor regressions and relapse-free regressions across treatment groups. To determine if any combination therapy produced significant synergistic inhibition of tumor growth, i.e., more than additive, the growth curves from the serial area measurements were compared using a linear mixed model approach over the first 3 weeks after start of therapy (Lindsey, J. K. Models for Repeated Measurements, pp. 100-142, Oxford, 1993). To test for synergistic effects of the combination therapies, an interaction term was included in the model. If the interaction term was significant and the effect was inhibition of growth at a rate greater than additive then the interaction was considered synergistic.\nA total of 166 animals, 10 treatment groups, and 6 independent experiments were included in the aggregate analysis. Treatment combinations were compared with respect to in vivo anti-tumor efficacy. The median tumor doubling times were analyzed using the Kruskal-Wallis test and Fisher's exact test was used to compare the proportions of tumor regressions and relapse-free regressions across treatment groups."}, "[3]": {"tested_on": "normal human hepatocytes", "experiment": "Hepatocyte viability (ATPLite)", "assay_type": "cell-based", "description": "For 24-hour cell viability assays, fresh normal human hepatocytes in 96-well plates were purchased from In Vitro Technology (Baltimore, Md.). […] For 6-hour viability assays, normal hepatocytes or hepatocellular cancer cells are isolated from fresh surgical specimens collected from UAB Tissue Procurement Center. All reagents for isolation of human hepatocytes including hepatocytes perfusion buffer, digest medium, washing medium, and attachment medium were purchased from Gibco. The tissue slides are digested in the Hepatocyte Digest Medium at 37° C. with shaking (50 rpm) for one hour. The isolated hepatocytes are harvested by low speed centrifugation (50 g, 3 min), and washed with the Hepatocyte Washing Medium six times. Single cell suspension of hepatocytes are cultured in the Attachment Medium containing 10% FCS in 96-well Matrigel plates (BD) for six hours. Non-attached hepatocytes are removed by twice washing with pre-warmed attachment medium."}, "[4]": {"tested_on": "H-9 cells", "experiment": "Apoptosis by ATPLite, overnight", "assay_type": "cell-based, human", "procedure": "(§1) Cell viability is determined using (1) the ATPLite kit according to the manufacturer's instructions (Packard Instruments, Meriden, Conn.); (2) the MTT Cell proliferation/viability kit (Sigma); or (3) PI staining of dead cells and analyzed by flow cytometry. At end of culture, cells are stained with 10 μg/ml PI and PI negative cells are gated as viable cells. For analysis of condensed nuclei of hepatocytes, cells are stained with 10 ng/ml […] (Molecular Probes) and analyzed by flow cytometry."}, "[5]": {"tested_on": "U87, U937 and Molt-4", "experiment": "Apoptosis by ATPLite, overnight", "assay_type": "cell-based, human", "details": "glioma line U87, hematopoietic lines U937 and Molt-4", "procedure": "as §1"}, "[6]": {"tested_on": "SKW6.4, EB-3, and Raji", "experiment": "Apoptosis by ATPLite, overnight", "assay_type": "cell-based, human", "details": "B lymphoma lines SKW6.4, EB-3, Raji", "procedure": "as §1"}, "[7]": {"tested_on": "Daudi", "experiment": "Apoptosis by ATPLite, overnight", "assay_type": "cell-based, human", "details": "B lymphoma line Daudi", "procedure": "as §1"}, "[8]": {"tested_on": "primary B cells", "experiment": "Apoptosis by ATPLite, overnight", "assay_type": "cell-based, human", "procedure": "as §1"}, "[9]": {"tested_on": "Hs683 and U251-MG", "experiment": "Apoptosis by ATPLite, overnight", "assay_type": "cell-based, human", "details": "glioma lines Hs683 and U251-MG", "procedure": "as §1"}, "[10]": {"tested_on": "Molt-4 and U937 cells", "experiment": "Apoptosis by ATPLite, overnight", "assay_type": "cell-based, human", "procedure": "as §1"}, "[11]": {"tested_on": "Primary peripheral blood T cells", "experiment": "Apoptosis by ATPLite, overnight", "assay_type": "cell-based, human", "procedure": "as §1"}, "[12]": {"tested_on": "Jurkat and CEM-6", "experiment": "Apoptosis by ATPLite, overnight", "assay_type": "cell-based, human", "procedure": "as §1"}, "[13]": {"tested_on": "NF-κb", "experiment": "Gel-shift assay in RA synovial cells", "assay_type": "cell-based, human", "details": "50 ng/ml TRAIL, Fas ligand or TRA-8, 20 ng/ml TNF-a", "procedure": "There is considerable evidence to support the concept that there are close links between the signaling of apoptosis and the signaling of proliferation (45). It has been established that DR5 is able to activate a NF-kb pathway in addition to apoptosis signaling transduction, and that NF-κb activation may be able to transduce an anti-apoptosis signal. Therefore a gel-shift assay is carried out. […] The nuclear extracts are prepared and incubated with the […] [^32P]-labeled oligo-DNA probe. The results are analyzed using the cyclone phospha-imager (TopCount NXT, Packard Instrument Company, CT)."}, "[14]": {"tested_on": "MMP-1 and MMP-3", "experiment": "MMP ELISA of RA synovial cell supernatants", "assay_type": "cell-based, human", "details": "RA synovial cells, overnight", "procedure": "Thus, it is possible that TRAIL, like TNF-α, may serve as a pro-inflammatory cytokine. […] The levels of the MMP-1 and MMP-3 in the culture supernatants are determined by the ELISA kits."}, "[15]": {"tested_on": "OA synovial cells", "experiment": "Apoptosis of primary synovial cells", "assay_type": "cell-based, human", "details": "OA72M cells", "description": "(§2) Cell viability is the percentage of the cpm of treated cells versus the cpm of untreated cells.\n(§3) The expression of DR5 on a panel of eight primary cultured synovial cells from patients with RA is compared with that on eight primary cultured synovial cells from patients with osteoarthritis (hereinafter referred to as “OA”). The eight human primary RA synovial cell cultures RA-1014, RA-1016, RA-1021, RA-512, RA-707, RA-811, RA-716, and RA-929 are kindly provided by Dr. M. Ohtsuki (Sankyo Co. Ltd., Tokyo, Japan) and cultured in DMEM supplemented with 10% FCS, penicillin, streptomycin, and glutamine. The […] OA synovial cell primary cell cultures are isolated from the synovial tissues of OA patients by a standard collagenase method and cultured under the same conditions. The passage number of all primary cells is under 10. The expression of DR5 is determined by FACs analysis as described in Example 5."}, "[16]": {"tested_on": "RA synovial cells", "experiment": "Apoptosis of primary synovial cells", "assay_type": "cell-based, human", "details": "RA-1014, RA-811, RA-716, RA929; high concentrations (>50 ng/ml)", "description": "as §2, §3"}, "[17]": {"target": "T1, DR4 (Homo sapiens, UniProt O00220)", "T1 construct": "fusion protein comprising the extracellular domain of human DR5 or DR4 and the Fc region of human IgG1", "T1 sequence (O00220 24-239 limits assumed)": "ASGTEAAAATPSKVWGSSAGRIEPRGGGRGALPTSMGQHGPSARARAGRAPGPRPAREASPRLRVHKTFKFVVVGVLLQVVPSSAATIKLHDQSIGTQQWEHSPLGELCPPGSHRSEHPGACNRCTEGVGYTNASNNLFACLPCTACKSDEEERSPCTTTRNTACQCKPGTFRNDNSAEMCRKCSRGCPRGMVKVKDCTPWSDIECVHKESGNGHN", "experiment": "ELISA binding to DR4-Ig fusion protein", "details": "ELISA plates coated with DR4/hIgG1", "procedure": "ELISA plates are coated with 2 μg/ml of DR4-Ig or DR5-Ig fusion protein overnight. […] The reactions are developed by TMB substrate buffer and measured by the Benchmark Microplate Reader (BioRad). The Kd values are estimated by the one-site binding model of non-linear regression using GraphPad Prism software (GraphPad Software, San Diego, Calif.)."}, "[18]": {"tested_on": "Jurkat cells", "experiment": "Jurkat cell viability (ATPLite, MTT, PI exclusion)", "assay_type": "cell-based, human", "details": "50 ng/ml TRA-8 overnight", "procedure": "as §1"}, "[19]": {"details": "aggregate, number of animals (%)"}}, "note": "Residues, ends and D or L forms follow the SMILES beside them. *: point of attachment. Cbz = O=C(OCc1ccccc1)*; CH2F = FC*"}
{"molecule": "COc1cccc2c1C(=O)c1c(O)c3c(c(O)c1C2=O)C[C@@](O)(C(=O)CO)C[C@@H]3O[C@H]1C[C@H](N)[C@H](O)[C@H](C)O1", "note": "[Adriamycin, adriamycin]", "values": [{"measurement": "intense TUNEL stained cells", "setting": "[1]", "result": 6, "unit": "%"}, {"measurement": "Complete Regressions No relapse (%)", "setting": "[2]; [19]", "result": 0}, {"measurement": "Complete Regressions Total (%)", "setting": "[2]; [19]", "result": 0}, {"measurement": "complete regressions of tumor", "setting": "[2]; individual experiments (FIG. 25-27), animals", "result": "no complete regressions"}, {"measurement": "inhibition of tumor growth compared to untreated controls", "setting": "[2]; individual experiments, TRA-8 200 μg i.p. x6, Kruskal-Wallis test", "result": "did not differ from controls"}]}
{"molecule": "TRAIL: soluble recombinant human TRAIL (aa 95 to 281) with FLAG tag, Alexis; used with anti-FLAG crosslinker", "values": [{"measurement": "hepatocytes killed", "setting": "[3]; 6-hour culture, 500 ng/ml TRAIL", "result": "Over 20%"}, {"measurement": "hepatocytes killed", "setting": "[3]; 24-hour culture, 1 μg/ml, TRAIL plus crosslinker", "result": "more than 80%"}, {"measurement": "hepatocytes killed in the presence of cycloheximide", "setting": "[3]; four-hour culture, 1 μg/ml cycloheximide", "result": "greater than 70%"}, {"measurement": "susceptibility to apoptosis", "setting": "[4]", "result": "resistant"}, {"measurement": "sensitivity to apoptosis", "setting": "[5]", "result": "exhibited sensitivity"}, {"measurement": "susceptibility to apoptosis", "setting": "[6]", "result": "very susceptible"}, {"measurement": "susceptibility to apoptosis", "setting": "[7]", "result": "much less susceptible"}, {"measurement": "apoptosis after treatment", "setting": "[8]", "result": "did not undergo apoptosis"}, {"measurement": "sensitivity to apoptosis", "setting": "[9]", "result": "resistant"}, {"measurement": "susceptibility to apoptosis", "setting": "[10]", "result": "partially susceptible"}, {"measurement": "susceptibility to apoptosis", "setting": "[11]", "result": "resistant"}, {"measurement": "susceptibility to apoptosis", "setting": "[12]", "result": "highly susceptible"}, {"measurement": "NF-κb activation", "setting": "[13]", "result": "activated in a time-dependent fashion"}, {"measurement": "production of MMPs", "setting": "[14]", "result": "not associated with increased release"}, {"measurement": "susceptibility to apoptosis", "setting": "[15]", "result": "completely resistant"}, {"measurement": "cell death", "setting": "[16]", "result": "~100", "unit": "%"}, {"measurement": "binding activity to DR4", "setting": "[17]", "result": "bound to DR4"}]}
{"molecule": "IL-1b: proinflammatory cytokine", "values": [{"measurement": "production of MMPs", "setting": "[14]", "result": "increased"}]}
{"molecule": "CC(NC(=O)C(NC(=O)OCc1ccccc1)C(C)C)C(=O)NC(CC(=O)O)C(=O)CF", "note": "(stereo not drawn) [Z-VAD] (Cbz-Val-Ala-Asp-CH2F; configuration not given here)", "values": [{"measurement": "inhibition of TRA-8-induced cell death", "setting": "[18]", "result": "completely inhibited"}]}
{"molecule": "TNF-α", "values": [{"measurement": "NF-κb activation", "setting": "[13]", "result": "activated in a time-dependent fashion"}, {"measurement": "production of MMPs", "setting": "[14]", "result": "increased"}]}
{"molecule": "B1", "values": [{"measurement": "NF-κb activation", "setting": "[13]", "result": "unable to induce NF-κb activation"}]}
